Results: patent US9982028B2, “Recombinant human interferon-like proteins” (Novagen Holding Corporation, priority 2007, dated 2018)
Entries after “also recorded” stand apart in the source; their conditions may differ.

Tests used:
[1] = test system: human melanoma A-375 xenografts; assay: Human melanoma xenograft model; assay type: in vivo, athymic nude Balb/c mice; conditions: A-375 xenograft, 30 mg/kg (30,000 μg/kg) i.v. once every 2 days for 5 times
[2] = test system: human colon cancer LS 180 xenografts; assay: Human colon cancer xenograft model; assay type: in vivo, athymic nude Balb/c mice; conditions: LS 180 xenograft, 30 mg/kg (30,000 μg/kg) i.v. once every 2 days for 5 times
[3] = test system: human leukemia HL 60(s) xenografts; assay: Human leukemia xenograft model; assay type: in vivo, athymic nude Balb/c mice; conditions: HL 60(s) xenograft, 30 mg/kg (30,000 μg/kg) i.v. once every 2 days for 5 times
[4] = General condition of the mice during treatment; assay type: in vivo; conditions: mice with human cancer xenografts, during the treatment period

In the case of O=c1[nH]cc(F)c(=O)[nH]1 [5-FU, 5-Fluorouracil, reference compound], the Inhibition rate [1] is reported as 67.2%, the “Tumor weight (X ± SD)” value ([1]; n = 10) is reported as 1.004 ± 0.105 g and the Inhibition rate [2] is reported as 81.8%. The “Tumor weight (X ± SD)” value ([2]; n = 10) was 0.758 ± 0.227 g, the Inhibition rate [3] was 76.0% and the “Tumor weight (X ± SD)” value ([3]; n = 10) was 0.893 ± 0.289 g. For the same compound, the “general condition of treated mice (eating, behavior, weight loss)” value [4] was “significant weight loss and activity reduction; also recorded: showed typical changes of eating and behavior, and weight loss”.
